# Measurements published in patent publication US9920057B2, “Substituted pyrazino[1′,2′:1 ,6]pyrido[3,4-b]indoles as phosphodiesterase type 5 inhibitors” (Chongqing University of Arts and Sciences, priority 2015, dated 2018).
# Where “and” joins values, the source holds several entries; their conditions need not be identical. Equal entries are not always repeated. Where two headings read alike, the source gives them in different places.
# Legend:
# [1] = Study on pharmacokinetics in rats, oral administration; assay type: in vivo, SD rat; settings: oral 10.0 mg · kg^−1
# Method: Sample Preparation Method: One step protein precipitation
# Precipitant: ACN, with concentration of Verapamil (5.00 ng·mL-1)
# Calibration Curve and QC samples Preparation: 5.00 μL each of the calibration or QC working solution and 45.0 μL of blank plasma were transferred into a 1.5-mL microcentrifuge tube. Final standard curve concentration levels were 1.00, 2.50, 5.00, 10.0, 50.0, 100, 500 and 1000 ng·mL-1. The QC concentration levels were 2.50 or 5.00, 50.0 and 800 ng·mL-1. Dilution QC was 5000 ng·mL-1.
# Plasma Samples Preparation: Aliquots of 10.0 μL of real samples, calibration curve samples and QC samples were supplemented with 100 μL of precipitant. After vortexed for 3.00 min and centrifuged at 12000 rpm for 5.00 min, the supernatant 10 μL was injected for LC-MS/MS analysis.
# Number of Rats/Group: 3/group
# Administration Route: oral administration
# Blood Collection Time: 0 min, 15 min, 30 min, 1 h, 2 h, 4 h, 6 h, 8 h, 24 h
# [2] = tested on: normal rat; experiment: Erectile function of normal rat: blood pressure, intracavernous pressure and detumescence time on cavernous nerve stimulation; assay type: in vivo; settings: reference group (Calais), dose not stated
# Method: Rats were anesthetized with 2% pentobarbital […], then incision was made in the right side of neck, a PE-50 silicon tube connected with a pressure transducer was inserted into the carotid artery, to record the change of the blood pressure.
# The erectile activity was induced by a bipolar stainless-steel, stimulus parameters at a pulse width of […], stimulation frequency of 7.98 Hz, current of 3 mA, stimulation duration of 40 s, and then record the intracavernous pressure (ICP).
# Assessment of erectile function: ICP, BP, change of ICP and detumescence time were monitored though electric cavernous nerve stimulation at 2, 6 and 24 hours post dosing. Erectile function was evaluated by change of ICP and detumescence time.
# [3] = target: T1, PDE1A (Homo sapiens, UniProt P54750); experiment: Inhibition of PDE activity (assay kit); assay type: biochemical
# T1 construct: purchased
# Method: (§1) i. Supplement 99 μl assay buffer per well, then add 1 μl compound in DMSO dilution to wells of V96 MicroWell Plates and uniformly mix;
# (§2) ii. Add 5 μl compound in assay buffer dilution to each well of 96-well microplate;
# (§3) the final concentration of compound as below:
# (§4) The inhibitory potential of test compounds on several types of phosphodiesterase (PDE) activity is determined according to the protocol of assay kit.
# [4] = target: T2, PDE2A (Homo sapiens, UniProt O00408); experiment: Inhibition of PDE activity (assay kit); assay type: biochemical
# T2 construct: purchased
# Method: as §1, §2, §3, §4
# [5] = target: T3, PDE3A (Homo sapiens, UniProt Q14432); experiment: Inhibition of PDE activity (assay kit); assay type: biochemical
# T3 construct: purchased
# Method: as §1, §2, §3, §4
# [6] = target: T4, PDE7A (Homo sapiens, UniProt Q13946); experiment: Inhibition of PDE activity (assay kit); assay type: biochemical
# T4 construct: purchased
# Method: as §1, §2, §3, §4
# [7] = background statement; cited from earlier work
# [8] = target: T5, PDE5A (Homo sapiens, UniProt O76074); experiment: Inhibition against PDE5 (Homogenous Time Resolve Fluoresce); assay type: biochemical; settings: HTF
# T5 construct: purchased SIGMA-ALDRICH E904
# Method: Method: IC50 of an inhibition effect on PDE5A (E904, SIGMA-ALDRICH) of test compounds was tested by using Sildenafil (S1431, selleck) as a positive control sample and the method of Homogenous Time Resolve Fluoresce, HTF (Cat. No. 62GM2PEB, Cisbio.)
# [9] = SD, rat, plasma, po, 10 mg/kg, Mean of 3 rats
# [10] = SD, rat, plasma, po, 10 mg/kg, Mean of 3 rats, read-out: AUC0-inf
# [11] = SD, rat, plasma, po, 10 mg/kg, Mean of 3 rats, read-out: AUC0-t
# [12] = SD, rat, plasma, po, 10 mg/kg, Mean of 3 rats, read-out: Cmax
# [13] = SD, rat, plasma, po, 10 mg/kg, individual rats
# [14] = SD, rat, plasma, po, 10 mg/kg, individual rats, read-out: AUC0-inf
# [15] = SD, rat, plasma, po, 10 mg/kg, individual rats, read-out: AUC0-t
# [16] = SD, rat, plasma, individual rats
# T2 sequence (O00408 whole entry): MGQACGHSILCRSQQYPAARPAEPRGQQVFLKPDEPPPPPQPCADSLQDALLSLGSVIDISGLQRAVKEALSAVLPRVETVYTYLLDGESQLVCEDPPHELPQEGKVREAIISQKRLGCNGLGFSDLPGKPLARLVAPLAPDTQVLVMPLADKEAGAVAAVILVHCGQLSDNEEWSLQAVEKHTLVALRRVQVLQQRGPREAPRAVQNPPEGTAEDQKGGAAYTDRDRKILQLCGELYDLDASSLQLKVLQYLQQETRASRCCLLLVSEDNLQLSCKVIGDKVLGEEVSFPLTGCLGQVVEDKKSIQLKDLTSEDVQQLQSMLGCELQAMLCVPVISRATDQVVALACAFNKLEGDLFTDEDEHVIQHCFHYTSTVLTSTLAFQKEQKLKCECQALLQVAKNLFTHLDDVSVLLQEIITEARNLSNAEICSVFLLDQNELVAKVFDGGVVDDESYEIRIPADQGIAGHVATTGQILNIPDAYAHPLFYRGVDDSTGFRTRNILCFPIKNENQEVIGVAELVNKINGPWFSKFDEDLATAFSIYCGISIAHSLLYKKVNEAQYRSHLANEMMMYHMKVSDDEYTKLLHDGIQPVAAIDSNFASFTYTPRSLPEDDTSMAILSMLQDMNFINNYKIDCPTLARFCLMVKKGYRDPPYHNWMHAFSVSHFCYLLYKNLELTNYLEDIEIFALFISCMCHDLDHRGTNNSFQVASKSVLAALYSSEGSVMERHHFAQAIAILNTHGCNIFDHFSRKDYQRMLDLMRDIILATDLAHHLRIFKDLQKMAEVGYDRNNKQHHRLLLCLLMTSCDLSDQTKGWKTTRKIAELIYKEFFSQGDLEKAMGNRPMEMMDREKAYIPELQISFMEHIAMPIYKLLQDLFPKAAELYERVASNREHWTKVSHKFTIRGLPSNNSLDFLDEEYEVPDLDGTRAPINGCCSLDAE
# T4 sequence (Q13946 whole entry): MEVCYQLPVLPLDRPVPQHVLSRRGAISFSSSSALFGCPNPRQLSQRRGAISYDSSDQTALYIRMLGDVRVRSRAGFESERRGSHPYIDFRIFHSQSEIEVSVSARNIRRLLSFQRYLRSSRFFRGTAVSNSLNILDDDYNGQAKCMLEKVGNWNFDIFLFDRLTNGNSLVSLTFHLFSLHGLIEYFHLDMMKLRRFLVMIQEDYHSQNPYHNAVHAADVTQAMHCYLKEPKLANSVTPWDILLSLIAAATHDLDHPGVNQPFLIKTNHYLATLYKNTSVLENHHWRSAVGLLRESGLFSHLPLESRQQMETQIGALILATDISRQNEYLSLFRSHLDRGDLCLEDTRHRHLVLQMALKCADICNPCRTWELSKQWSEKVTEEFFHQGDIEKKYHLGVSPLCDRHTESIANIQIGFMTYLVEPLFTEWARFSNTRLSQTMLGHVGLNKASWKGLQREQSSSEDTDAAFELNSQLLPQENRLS
# T3 sequence (Q14432 whole entry): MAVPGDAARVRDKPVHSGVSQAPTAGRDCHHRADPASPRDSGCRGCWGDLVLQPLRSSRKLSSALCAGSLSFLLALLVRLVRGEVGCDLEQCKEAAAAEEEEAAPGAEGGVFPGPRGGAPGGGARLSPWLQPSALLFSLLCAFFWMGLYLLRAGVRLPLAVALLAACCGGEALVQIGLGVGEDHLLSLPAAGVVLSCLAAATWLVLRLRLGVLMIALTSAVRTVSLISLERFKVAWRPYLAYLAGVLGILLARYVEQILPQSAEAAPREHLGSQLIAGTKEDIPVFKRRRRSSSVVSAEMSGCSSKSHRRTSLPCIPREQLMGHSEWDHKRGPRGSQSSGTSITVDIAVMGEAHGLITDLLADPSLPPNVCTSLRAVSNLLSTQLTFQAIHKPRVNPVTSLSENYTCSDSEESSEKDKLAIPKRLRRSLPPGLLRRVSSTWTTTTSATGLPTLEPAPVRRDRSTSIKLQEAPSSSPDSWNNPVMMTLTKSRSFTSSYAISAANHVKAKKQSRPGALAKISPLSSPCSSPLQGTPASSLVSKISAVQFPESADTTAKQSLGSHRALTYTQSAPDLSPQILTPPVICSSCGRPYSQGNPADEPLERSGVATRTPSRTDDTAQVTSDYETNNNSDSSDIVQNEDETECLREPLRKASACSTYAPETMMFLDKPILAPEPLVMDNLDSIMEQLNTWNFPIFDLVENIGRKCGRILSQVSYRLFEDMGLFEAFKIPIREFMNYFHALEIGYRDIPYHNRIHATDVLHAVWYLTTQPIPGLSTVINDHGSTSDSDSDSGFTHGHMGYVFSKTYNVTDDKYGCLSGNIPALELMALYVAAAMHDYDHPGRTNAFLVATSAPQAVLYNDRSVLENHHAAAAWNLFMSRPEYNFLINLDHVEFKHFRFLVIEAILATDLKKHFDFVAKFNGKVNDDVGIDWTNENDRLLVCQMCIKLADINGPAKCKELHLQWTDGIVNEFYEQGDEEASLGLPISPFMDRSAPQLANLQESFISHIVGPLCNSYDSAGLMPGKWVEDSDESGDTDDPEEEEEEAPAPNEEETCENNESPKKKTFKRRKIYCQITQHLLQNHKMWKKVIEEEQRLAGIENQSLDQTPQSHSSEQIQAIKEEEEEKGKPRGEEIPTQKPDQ
# T1 sequence (P54750 whole entry): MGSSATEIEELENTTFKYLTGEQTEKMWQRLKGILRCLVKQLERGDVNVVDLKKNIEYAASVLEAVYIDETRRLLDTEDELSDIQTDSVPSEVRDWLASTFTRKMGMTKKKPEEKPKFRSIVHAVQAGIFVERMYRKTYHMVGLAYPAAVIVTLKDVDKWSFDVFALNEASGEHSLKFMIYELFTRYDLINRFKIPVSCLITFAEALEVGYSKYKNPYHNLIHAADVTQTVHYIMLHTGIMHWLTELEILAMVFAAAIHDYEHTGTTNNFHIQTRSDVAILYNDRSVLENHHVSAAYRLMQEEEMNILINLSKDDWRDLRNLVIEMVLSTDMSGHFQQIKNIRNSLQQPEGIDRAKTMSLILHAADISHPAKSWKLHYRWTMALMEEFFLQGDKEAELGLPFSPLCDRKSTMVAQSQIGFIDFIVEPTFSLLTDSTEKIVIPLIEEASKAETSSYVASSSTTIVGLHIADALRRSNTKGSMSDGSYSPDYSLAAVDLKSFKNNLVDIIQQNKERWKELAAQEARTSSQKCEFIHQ
structure (smiles),measurement,setting,value
CN1CC(=O)N2[C@H](c3ccc4c(c3)OCO4)c3[nH]c4ccccc4c3C[C@@H]2C1=O [Cialis],AUMC0-inf,[1]; Mean of 3 rats,54240 h · h · ng · mL^−1
same,AUMC0-t,[1]; Mean of 3 rats,52702 h · h · ng · mL^−1
same,Kel,[1]; Mean of 3 rats,0.248 h⁻¹
same,MRTPO,[1]; Mean of 3 rats,6.07 h
same,half-life,[1]; [9],2.99 h
same,AUC0-inf,[1]; [10],8860 ng·h/mL
same,AUC0-t,[1]; [11],8810 ng·h/mL
same,Cmax,[1]; [12],926 ng/mL
same,half-life,[1]; [13],3.46 h
same,AUC0-inf,[1]; [14],8810 ng·h/mL
same,AUC0-t,[1]; [15],8720 ng·h/mL
same,Tmax,[1]; [16],4 h
same,AUC0-inf,[1]; individual rats,6051 ng·h/mL and 11729 ng·h/mL
same,AUC0-t,[1]; individual rats,5993 ng·h/mL and 11723 ng·h/mL
same,AUMC0-inf,[1]; individual rats,56364 h · h · ng · mL^−1 and 34440 h · h · ng · mL^−1 and 71915 h · h · ng · mL^−1
same,AUMC0-t,[1]; individual rats,53611 h · h · ng · mL^−1 and 32747 h · h · ng · mL^−1 and 71748 h · h · ng · mL^−1
same,Cmax,[1]; individual rats,747 ng/mL and 676 ng/mL and 1356 ng/mL
same,Kel,[1]; individual rats,0.200 h⁻¹ and 0.197 h⁻¹ and 0.346 h⁻¹
same,MRTPO,[1]; individual rats,6.40 h and 5.69 h and 6.13 h
same,t1/2,[1]; individual rats,3.51 h and 2.00 h
same,BP after stimulation,[2]; 2 hours after dosing,64.14 ± 9.86 mmHg
same,BP before stimulation,[2]; 2 hours after dosing,100.98 ± 4.48 mmHg
same,Change of BP,[2]; 2 hours after dosing,36.85 ± 7.34 mmHg
same,Change of ICP,[2]; 2 hours after dosing,31.82 ± 7.63 mmHg
same,Detumescence Time,[2]; 2 hours after dosing,40.50 ± 21.14 s
same,ICP after stimulation,[2]; 2 hours after dosing,39.19 ± 8.58 mmHg
same,ICP before stimulation,[2]; 2 hours after dosing,7.38 ± 1.75 mmHg
same,BP after stimulation,[2]; 6 hours after dosing,58.14 ± 14.30 mmHg
same,BP before stimulation,[2]; 6 hours after dosing,91.20 ± 28.48 mmHg
same,Change of BP,[2]; 6 hours after dosing,33.07 ± 17.13 mmHg
same,Change of ICP,[2]; 6 hours after dosing,34.15 ± 6.99 mmHg
same,Detumescence Time,[2]; 6 hours after dosing,44.25 ± 13.35 s
same,ICP after stimulation,[2]; 6 hours after dosing,41.76 ± 6.49 mmHg
same,ICP before stimulation,[2]; 6 hours after dosing,7.61 ± 1.53 mmHg
same,BP after stimulation,[2]; 24 hours after dosing,78.00 ± 2.68 mmHg
same,Change of BP,[2]; 24 hours after dosing,34.26 ± 7.18 mmHg
same,Change of ICP,[2]; 24 hours after dosing,35.38 ± 4.55 mmHg
same,Detumescence Time,[2]; 24 hours after dosing,41.25 ± 10.34 s
same,ICP after stimulation,[2]; 24 hours after dosing,43.01 ± 6.19 mmHg
same,ICP before stimulation,[2]; 24 hours after dosing,7.63 ± 4.03 mmHg
same,IC50,[3],> 10 µM
same,IC50,[4],> 10 µM
same,IC50,[5],> 10 µM
same,IC50,[6],> 10 µM
same,half-life in body,[7],24 to 36 h
NN1CC(=O)N2[C@H](c3ccc4c(c3)OCO4)c3[nH]c4ccccc4c3C[C@@H]2C1=O [DDCI02],IC50,[8],0.566 µM
same,AUMC0-inf,[1]; Mean of 3 rats,69719 h · h · ng · mL^−1
same,AUMC0-t,[1]; Mean of 3 rats,63864 h · h · ng · mL^−1
same,Kel,[1]; Mean of 3 rats,0.193 h⁻¹
same,MRTPO,[1]; Mean of 3 rats,4.19 h
same,half-life,[1]; [9],3.73 h
same,AUC0-inf,[1]; [10],16300 ng·h/mL
same,AUC0-t,[1]; [11],16100 ng·h/mL
same,Cmax,[1]; [12],4680 ng/mL
same,half-life,[1]; [13],4.85 h
same,AUC0-inf,[1]; [14],18600 ng·h/mL
same,AUC0-t,[1]; [15],18100 ng·h/mL
same,Cmax,"[1]; SD, rat, plasma, po, 10 mg/kg, individual rats, read-out: Cmax",4580 ng/mL
same,Tmax,[1]; [16],0.25 h
same,AUC0-inf,[1]; individual rats,15617 ng·h/mL and 14794 ng·h/mL
same,AUC0-t,[1]; individual rats,15563 ng·h/mL and 14723 ng·h/mL
same,AUMC0-inf,[1]; individual rats,99393 h · h · ng · mL^−1 and 57718 h · h · ng · mL^−1 and 52047 h · h · ng · mL^−1
same,AUMC0-t,[1]; individual rats,85428 h · h · ng · mL^−1 and 56156 h · h · ng · mL^−1 and 50008 h · h · ng · mL^−1
same,Cmax,[1]; individual rats,4288 ng/mL and 5171 ng/mL
same,Kel,[1]; individual rats,0.143 h⁻¹ and 0.221 h⁻¹ and 0.216 h⁻¹
same,MRTPO,[1]; individual rats,5.35 h and 3.70 h and 3.52 h
same,t1/2,[1]; individual rats,3.14 h and 3.21 h
